According to PMC7917659, “Selective Cytotoxicity of Complexes with N,N,N-Donor Dipodal Ligand in Tumor Cells” (International Journal of Molecular Sciences, 2021):
Entries after “also recorded” stand apart in the source; their conditions may differ. Where two headings read alike, the source gives them in different places.

Legend:
vimentin (Vim) mRNA = assay: Real-Time PCR (qPCR) gene expression in Hep G2 cells, vimentin; assay type: cell-based, human; settings: Hep G2, 50 μM/L, 24 h, normalized to GAPDH
Procedure: (§1) Hep G2 cells were used to establish cell cultures (2 × 10^4 cells/well). After 24 h of incubation with chemicals at concentration of 50 µM/L or with 1% v/v DMSO (control), the cells were suspended in RL buffer (EURx, Gdansk, Poland) and the total RNA was extracted using Universal RNA purification Kit (EURx, Gdansk, Poland), according to the manufacturer’s protocol. For cDNA synthesis, MMLV reverse transcriptase (Promega, Madison, WI, USA) was used. The reverse transcription reaction was performed with ProFlex PCR System (Applied Biosystems, Foster City, CA, USA). The QuantStudio 7 Flex (Applied Biosystems, Foster City, CA, USA) was employed for the real-time PCR (qPCR). The following Taq-Man human probes (Applied Biosystems) were used for qPCR reaction: VEGFA (Hs00173626_m1), VIM (001855284_m1), MMP-2 (Hs00234422_m1), MMP-9 (Hs00234579_m1) and GAPDH (Hs99999905_m1). Blank qPCR Master Mix (EURx) was used according to the manufacturer’s instructions. Expression data were normalized on the mean housekeeping gene (GAPDH) as a reference. mRNA expressions were obtained with the 2^−ΔΔCt method and relative expression values were presented, as previously published.

HepG2 cells [1] = assay: Trypan blue exclusion test, tumour cells; assay type: cell-based; settings: HepG2, 50 µM/L, p < 0.01 vs. control; for Viable cells vs. control (trypan blue exclusion): 24 h exposure; for Cytotoxicity / cell viability vs. control (trypan blue exclusion): 72 h exposure
Procedure: (§2) CHO-K1 and HepG2 cells were seeded into 6-well plates (Sarstedt, Numbrecht, Germany) at a density of 2 × 10^4 cells/well and then incubated for 24 h. The cell monolayers were washed with PBS solution (Sigma-Aldrich) and medium in each well was replaced with a new one, with addition of 50 µM/L of tested compound. Then, the cells were incubated in standard conditions for 24, 48 or 72 h. The cells cultured in the medium with addition of 1% v/v DMSO (Sigma-Aldrich) were positive controls (100% of growth). After incubation, the cells were detached using Trypsin-EDTA solution (Life Technologies) and suspended in buffered PBS (Sigma-Aldrich). Trypan Blue Exclusion dye (0.4% v/v, Sigma-Aldrich, Germany) was added to each cell culture and samples were kept at room temperature for 5 min. Then, the numbers of live cells (unstained) and dead cells (blue) in each population exposed to tested chemicals/dissolvent were measured with an automatic cell counter.

[2] = system: Glutathione Peroxidase (GPx); assay: Extracellular glutathione peroxidase activity in CHO-K1 culture medium; assay type: cell-based
Procedure: (§3) Glutathione peroxidase (GPx) activity was assayed spectrophotometrically in culture medium and enzyme function against reactive oxygen species was investigated according to Adachi et al., Comhair et al. and Howie et al. with modification of Zagrodzki, using hydrogen peroxide (H2O2) as a substrate. For experiment, cell cultures of CHO-K1 and Hep G2 cells were established with initial density of the cells as 2 × 10^4 cells/well. Then, the cells were exposed to 50 µM/L of each chemical for 24 h (control cells were incubated with 1% v/v of DMSO) and cell media were collected. Briefly, the samples were incubated with mixture of sodium azide, glutathione reductase, glutathione, reduced β-nicotinamide adenine dinucleotide phosphate (NADPH) and sodium phosphate (pH 7.6) for 2 min at 25 °C and the reaction was initiated by the addition of H2O2. NADPH was converted to NADP and the amount of the product was proportional to GPx activity. The decrease in absorbance at 340 nm over 3 min was recorded using a microplate reader Infinite M200 Pro, Tecan, Austria. The mean value was calculated and expressed as U/L of the cell culture medium.

Hep G2 cells [3] = assay: Antiproliferative MTT assay, tumour cells; assay type: cell-based; settings: for IC50: MTT assay, 72 h exposure, M ± SD, n = 3, read-out: IC50 for Cancer HEP G2 Cells
[4] = system: Glutathione Peroxidase (GPx); assay: Extracellular glutathione peroxidase activity in Hep G2 culture medium; assay type: cell-based; settings: HepG2 culture medium, 50 μM/L, 24 h
Procedure: as §3

CHO-K1 cells [5] = assay: Trypan blue exclusion test, noncancerous cells; assay type: cell-based; settings: CHO-K1, 50 µM/L, 24 h exposure, p < 0.05 vs. control
Procedure: as §2

[6] = system: matrix metalloproteinase-9 (MMP-9) mRNA; assay: Real-Time PCR (qPCR) gene expression in Hep G2 cells, MMP-9; assay type: cell-based, human
Procedure: as §1

Hep G2 cells [7] = assay: Apoptosis and necrosis detection by flow cytometry, tumour cells; assay type: cell-based; settings: Hep G2, 50 µM/L, 24 h, Annexin V/EthD-III flow cytometry
Procedure: (§4) For flow cytometry analyses, CHO-K1 and Hep G2 cells were plated in triplicates into 6-well plates (Sarstedt) at a density of 2 × 10^4 cells per well. The cells were treated for 24 h with tested complexes/comparator salts at concentration of 50 µM/L. Control cells were exposed to DMSO (1% v/v)for 24 h. Then, the cells were detached using Trypsin-EDTA solution, washed with buffered PBS (Lonza, Walkersville, MD, USA), centrifuged at 350× g for 5 min and suspended in binding buffer. Flow cytometry analysis was performed according to the manufacturer’s instructions (Biotium, Hayward, CA, USA). Fluorescent dyes, 488-AnnexinV (excitation maximum at 490 nm/emission maximum at 515 nm) and/or Ethidium homodimer (EthD-III; excitation maximum at 528 nm/emission maximum at 617 nm) were added to cell suspensions. To correct discrimination between cells and debris, SYTO 41 Blue Fluorescent Nucleic Acid Stain was used (excitation maximum at […]). The cells were incubated in dark for 15 min with appropriate dye/dyes and analysed using flow cytometer FACSCanto10C with BD FACSDiva 8.1 System Software (BD Biosciences Immunocytometry Systems, San Jose, CA, USA). The cells were gated according to forward (FSC), side scatter (SSC) and fluorescence parameters (FITC channel was used for 488-AnnexinV and Texas Red channel was used for EthD-III). The results are given as the percentage of apoptotic or necrotic cells of total counted cells.

CHO-K1 cells [8] = assay: Apoptosis and necrosis detection by flow cytometry, noncancerous cells; assay type: cell-based; settings: CHO-K1, 50 µM/L, 24 h, Annexin V/EthD-III flow cytometry
Procedure: as §4

CHO-K1 cells [9] = assay: Antiproliferative MTT assay, noncancerous cells; assay type: cell-based; settings: 72 h exposure, M ± SD, n = 3
[10] = system: matrix metalloproteinase-2 (MMP-2) mRNA; assay: Real-Time PCR (qPCR) gene expression in Hep G2 cells, MMP-2; assay type: cell-based, human
Procedure: as §1

[11] = system: vascular endothelial growth factor a (VEGFa) mRNA; assay: Real-Time PCR (qPCR) gene expression in Hep G2 cells, VEGFa; assay type: cell-based, human; settings: Hep G2, 50 μM/L, 24 h, normalized to GAPDH
Procedure: as §1

HepG2 cells [12] = assay: Cell growth assessment (cell counting), tumour cells; assay type: cell-based; settings: HepG2, 50 µM/L, 72 h incubation
Procedure: (§5) For experiments, the cells were seeded at low density (3 × 10^3/mL) into the 6-well plates (Sarstedt, Numbrecht, Germany) and kept for 24 h. Then, the medium was replaced for new one, containing 50 µM/L of tested compound or 1% v/v of DMSO (control). The time points of incubations were set at 24, 48 or 72 h. At the end of each experiment, the cells were gently detached with Trypsin-EDTA solution (Life Technologies), suspended with appropriate growth medium with addition of 10% v/v FBS and centrifuged at 350× g for 5 min. Finally, the cells were suspended in buffered PBS (Sigma-Aldrich) and counted.

CHO-K1 cells [13] = assay: Cell growth assessment (cell counting), noncancerous cells; assay type: cell-based; settings: CHO-K1, 50 µM/L, 72 h incubation
Procedure: as §5

Hep G2 cells [14] = system: Hep G2 cells; set-up: method as in doi:10.1039/C6RA06439F; settings: read-out: IC50 for Cancer HEP G2 Cells, cited from earlier work
CHO-K1 cells [15] = settings: read-out: IC50 for Noncancerous CHO-K1 Cells, cited from earlier work
[16] = CHO-K1 culture medium, 50 μM/L, 24 h
[17] = Hep G2, 50 μM/L, 24 h, normalized to GAPDH
[18] = MTT assay, 72 h exposure, M ± SD

| Compound | Vim mRNA expression vs. control (vimentin (Vim) mRNA) | Viable cells vs. control (trypan blue exclusion) (HepG2 cells [1]) | Cytotoxicity / cell viability vs. control (trypan blue exclusion) (HepG2 cells [1]) | GPx activity vs. control [2, 16] | IC50 (Hep G2 cells [3]) | Antiproliferative Index IC50 CHO-K1/IC50 HEP G2 (Hep G2 cells [3]; ratio of MTT IC50 values, 72 h) | GPx activity vs. control [4] | Viable cells vs. control (trypan blue exclusion) (CHO-K1 cells [5]) | MMP-9 mRNA expression vs. control [6, 17] | Apoptosis (Hep G2 cells [7]) | Cell death (apoptosis/necrosis) (CHO-K1 cells [8]) | IC50 (CHO-K1 cells [9]) | MMP-2 mRNA expression vs. control [10, 17] | VEGFa mRNA expression vs. control [11] | Necrosis (Hep G2 cells [7]) | Antiproliferative Index IC50 CHO-K1/IC50 HEP G2 (Hep G2 cells [3]) | other results |
| --- | --- | --- | --- | --- | --- | --- | --- | --- | --- | --- | --- | --- | --- | --- | --- | --- | --- |
| Cc1cc(C)n(CNCn2nc(C)cc2C)n1.Cc1ccccc1.[N-]=C=S.[N-]=C=S.[O]=[V+2] [Complex 3, [VOL^D(NCS)2]∙C6H5CH3] | decreased Vim expression | statistically significant decrease in viable cells | statistically significant toxic effect | did not disturb antioxidant enzyme activity | 45.6 ± 5 µM | 2.7 | decreased GPx activity | statistically significant decrease in viable cells | greatest inhibitory effect | most active promotor of apoptosis | minor | 123 ± 3 µM | greatest inhibitory effect | significantly hampered VEGFa expression | – | – | – |
| CO.Cc1cc(C)n(CNCn2nc(C)cc2C)n1.Cc1cc(C)n(CNCn2nc(C)cc2C)n1.[Co+2].[I-].[I-] [Complex 1, [Co(L^D)2]I2∙CH3OH] | decreased Vim expression | statistically significant decrease in viable cells | statistically significant toxic effect; also recorded: greatest decrease in Hep G2 cell viability | elevated the enzyme activity | 22 ± 4 µM | 5.5 | – | statistically significant decrease in viable cells | – | – | minor | 122 ± 10 µM | – | significantly hampered VEGFa expression | caused mainly necrotic cell death | – | Cell growth vs. control (HepG2 cells [12]): greatest inhibitory effect |
| Cc1cc(C)n(CNCn2nc(C)cc2C)n1.[Co+2].[N-]=C=S.[N-]=C=S [Complex 2, [CoL^D(NCS)2]] | – | statistically significant decrease in viable cells | statistically significant toxic effect | elevated the enzyme activity | 38.2 ± 5 µM | – | – | statistically significant decrease in viable cells | – | – | minor | 268 ± 15 µM | – | significantly hampered VEGFa expression | caused mainly necrotic cell death | 7.0 | Cell growth vs. control (CHO-K1 cells [13]): lowest inhibitory potency |
| N.N.[Cl][Pt][Cl] [Cisplatin, cisplatin, reference compound] | – | – | – | – | – | 0.9 | – | – | – | – | – | 19.1 ± 2 µM | – | – | – | – | IC50 (Hep G2 cells [14]; [18]): 21.3 ± 2 µM |
| [Cl-].[Cl-].[Co+2] [CoCl2] | – | – | – | – | – | – | – | – | – | – | – | – | – | – | – | 1.1 | IC50 (Hep G2 cells [14]): 160 µM; GPx activity vs. control [2]: did not exert any effect; MMP-9 mRNA expression vs. control [6]: did not changed transcript level for MMP-9; IC50 (CHO-K1 cells [15]): 176 µM; MMP-2 mRNA expression vs. control [10]: decreased mRNA for MMP-2 |
| O=S(=O)([O-])[O-].[O]=[V+2] [VOSO4, reference compound] | – | – | – | – | 75.6 ± 8 µM | 1.3 | elevated the enzyme activity | – | did not exert any effect | much weaker than complex 3 | – | – | did not exert any effect | – | – | – | IC50 (CHO-K1 cells [15]; [18]): 98.3 ± 9 µM |
